# According to US5194432A, “Cephem compounds” (Fujisawa Pharmaceutical Co., Ltd., priority 1985, dated 1993):
# How the values were obtained:
# Assay type in all cases: cell-based
# E. coli 31 = test: In vitro antibacterial activity, two-fold agar-plate dilution method (MIC), E. coli 31; settings: Escherichia coli, heart infusion agar, 10^6 viable cells per ml, 37° C., 20 hours, read-out: MIC (minimal inhibitory concentration)
# Procedure: (§1) In vitro antibacterial activity was determined by the two-fold agar-plate dilution method as described below.
# (§2) One loopful of an overnight culture of each test strain in Trypticase-soy broth (10^6 viable cells per ml) was streaked on heart infusion agar (HI-agar) containing graded concentrations of representative test compound, and the minimal inhibitory concentration (MIC) was expressed in terms of μg/ml after incubation at 37° C. for 20 hours.
# P. mirabilis 1 = test: In vitro antibacterial activity, two-fold agar-plate dilution method (MIC), P. mirabilis 1; settings: Proteus mirabilis, heart infusion agar, 10^6 viable cells per ml, 37° C., 20 hours, read-out: MIC (minimal inhibitory concentration)
# Procedure: as §1, §2
# P. vulgaris IAM1025 = test: In vitro antibacterial activity, two-fold agar-plate dilution method (MIC), P. vulgaris IAM1025; settings: Proteus vulgaris, heart infusion agar, 10^6 viable cells per ml, 37° C., 20 hours, read-out: MIC (minimal inhibitory concentration)
# Procedure: as §1, §2
MIC (E. coli 31) [µg/mL],MIC (P. mirabilis 1) [µg/mL],MIC (P. vulgaris IAM1025) [µg/mL],SMILES
< 0.025,0.05,0.05,"Cn1ccc[n+]1CC1=C(C(=O)[O-])N2C(=O)[C@@H](NC(=O)/C(=N\OC(F)F)c3csc(N)n3)[C@H]2SC1 [Compound A, 7β-[2-(2-Aminothiazol-4-yl)-2-(difluoromethoxyimino)acetamido]-3-(2-methyl-1-pyrazolio)methyl-3-cephem-4-carboxylate (syn isomer)]"
0.05,0.2,0.05,"Cn1ccc[n+]1CC1=C(C(=O)[O-])N2C(=O)[C@@H](NC(=O)/C(=N\OC3C=CCC3)c3csc(N)n3)[C@H]2SC1 (stereo partly drawn) [Compound B, 7β-[2-(2-Aminothiazol-4-yl)-2-(2-cyclopenten-1-yloxyimino)acetamido]-3-(2-methyl-1-pyrazolio)methyl-3-cephem-4-carboxylate (syn isomer)]"
≤ 0.025,0.05,≤ 0.025,"CO/N=C(\C(=O)N[C@@H]1C(=O)N2C(C(=O)[O-])=C(C[n+]3cc(C)c(N)n3C)CS[C@H]12)c1csc(N)n1 [Compound C, 7β-[2-(2-Aminothiazol-4-yl)-2-methoxyiminoacetamido]-3-(3-amino-2,4-dimethyl-1-pyrazolio)methyl-3-cephem-4-carboxylate (syn isomer)]"
≤ 0.025,0.05,≤ 0.025,"Cc1c[n+](CC2=C(C(=O)[O-])N3C(=O)[C@@H](NC(=O)/C(=N\OC(F)F)c4csc(N)n4)[C@H]3SC2)n(C)c1N [Compound D, 7β-[2-(2-Aminothiazol-4-yl)-2-(difluoromethoxyimino)acetamido]-3-(3-amino-2,4-dimethyl-1-pyrazolio)methyl-3-cephem-4-carboxylate (syn isomer)]"
